“And” between values parts separate entries of the source, which are not always exact repeats. Identical values can stand only once. Like-named read-outs stand apart in the source and are kept apart here.
Columns and labels:
α4β3δ receptors [1] = type: cell-based, mouse; set-up: spontaneous activity, Supp. Fig. 3e: unit not given here; conditions: for Ispont during staurosporine application: 200 nM staurosporine
Text: (§1) All components were obtained from Life Technologies.
(§2) Currents were acquired with Clampex ver.
(§3) Cells were voltage clamped at −40 mV.
For assessment of the efficacy of allosteric modulators on spontaneous activity, compounds were briefly applied (3–5 s) to achieve steady-state currents (IMod). […] The IMod was summed with IPTX (or subtracted for inhibitory modulators) and the Ispont calculated, as described by Eq. (2):2 Ispont(%)=[(IPTX+IMod)/(IPTX+IMax)]×100……………………………………

α4β3δ receptors [2] = molecular target: T1, α4β3δ receptors (UniProt P18506+P63080+Q9D6F4); test: Agonist-evoked whole-cell currents and their modulation by Zn2+ / DS2 in HEK cells; type: cell-based, mouse
T1 construct: expressed in transfected cells; host or cells: HEK 293
T1 sequence (Q9D6F4 36-552): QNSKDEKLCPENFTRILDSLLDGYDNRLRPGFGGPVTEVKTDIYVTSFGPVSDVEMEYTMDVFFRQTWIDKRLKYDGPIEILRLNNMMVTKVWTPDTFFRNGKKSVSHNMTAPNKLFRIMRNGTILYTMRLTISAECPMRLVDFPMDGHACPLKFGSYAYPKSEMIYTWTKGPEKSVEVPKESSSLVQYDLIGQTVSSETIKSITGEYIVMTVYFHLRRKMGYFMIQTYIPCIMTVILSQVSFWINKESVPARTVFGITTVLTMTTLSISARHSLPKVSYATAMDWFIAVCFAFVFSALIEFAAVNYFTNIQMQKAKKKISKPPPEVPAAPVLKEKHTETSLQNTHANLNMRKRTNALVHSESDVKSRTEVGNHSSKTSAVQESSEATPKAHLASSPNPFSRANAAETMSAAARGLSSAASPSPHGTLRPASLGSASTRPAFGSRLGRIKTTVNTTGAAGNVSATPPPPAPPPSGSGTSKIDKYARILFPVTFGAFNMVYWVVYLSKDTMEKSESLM
T1 sequence (P63080 26-473): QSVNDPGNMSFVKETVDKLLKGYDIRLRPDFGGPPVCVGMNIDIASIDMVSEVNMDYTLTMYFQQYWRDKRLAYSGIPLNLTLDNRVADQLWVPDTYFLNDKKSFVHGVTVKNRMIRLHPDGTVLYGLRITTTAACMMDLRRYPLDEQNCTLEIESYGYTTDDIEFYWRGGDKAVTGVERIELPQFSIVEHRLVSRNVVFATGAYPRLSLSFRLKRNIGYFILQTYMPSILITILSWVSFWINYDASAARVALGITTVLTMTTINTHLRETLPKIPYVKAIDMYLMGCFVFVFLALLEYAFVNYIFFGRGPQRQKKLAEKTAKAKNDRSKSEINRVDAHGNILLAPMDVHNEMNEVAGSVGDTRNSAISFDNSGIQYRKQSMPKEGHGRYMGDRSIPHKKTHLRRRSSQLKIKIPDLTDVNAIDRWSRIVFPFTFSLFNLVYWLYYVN
T1 sequence (P18506 25-449): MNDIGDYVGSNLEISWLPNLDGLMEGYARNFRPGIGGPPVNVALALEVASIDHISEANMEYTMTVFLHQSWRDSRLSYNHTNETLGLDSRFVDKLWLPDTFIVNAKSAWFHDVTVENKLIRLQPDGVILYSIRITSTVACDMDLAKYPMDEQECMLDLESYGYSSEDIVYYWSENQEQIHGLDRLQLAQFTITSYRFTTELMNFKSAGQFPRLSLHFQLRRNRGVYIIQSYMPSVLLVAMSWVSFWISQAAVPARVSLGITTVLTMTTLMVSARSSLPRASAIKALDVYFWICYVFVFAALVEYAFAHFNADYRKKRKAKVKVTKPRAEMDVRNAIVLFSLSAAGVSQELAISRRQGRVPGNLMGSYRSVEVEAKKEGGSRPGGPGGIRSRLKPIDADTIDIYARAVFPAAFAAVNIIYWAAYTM
Text: as §1, §2, §3

α4β3 receptors = test system: T2, α4β3 receptors; test: as above; type: cell-based, mouse; set-up: GABA current, Supp. Fig. 2b / GABA + DS2 current, Supp. Fig. 2b / GABA current, Supp. Fig. 2a: unit not given here; conditions: GABA with DS2, individual cells
T2 construct: expressed in transfected cells; host or cells: HEK 293
Text: as §1, §2, §3

[3] = test system: cultured hippocampal neurons; test: Voltage clamp of spontaneous/tonic GABAAR currents in transfected cultured hippocampal neurons; type: cell-based, rat; conditions: for spontaneous/tonic current, Supp. Fig. 4e: concanamycin treated (vs control), individual cells
Method: This media was replaced 2 h later with neurobasal-A media supplemented with 1% v/v B-27, 50 units/ml penicillin-G, 50 µg/ml streptomycin, 0.5% v/v glutamax and 35 mM glucose. These cells were transfected 6–8 days later using either the calcium phosphate protocol described above, or Effectene with a protocol as described by the manufacturer (Qiagen) using a total 0.8 μg of cDNA per coverslip. […] Neurons were used for electrophysiological recording or confocal imaging 5–9 days later.
as §2
Recordings from hippocampal cultures used ~3–5 MΩ electrodes filled with an internal solution consisting of (mM): 140 CsCl, 2 NaCl, 10 HEPES, 5 EGTA, 2 MgCl2, 0.5 CaCl2, 2 Na2ATP, 0.5 Na2GTP, 2 QX-314, pH 7.3. Osmolarity was 300 ± 20 mOsm/L. Cells were perfused in the same Kreb’s solution described above, except for the addition of 2 mM kynurenic acid. Cells were voltage clamped at −60 mV. For current clamp, cells were recorded using an internal electrode solution consisting of (mM): 137 potassium gluconate, 3 KCl, 10 HEPES, 5 EGTA, 0.5 CaCl2, 2 MgCl2, 2 Na2ATP and 0.5 Na2GTP, pH 7.3. Osmolarity was 300 ± 20 mOsm/L. The external solution was as described for voltage-clamp experiments and the calculated junction potential was ~15 mV. Current was injected to hold cells at −70 mV if required. For slice recordings, slices were perfused in the aCSF described above, and the internal solution was the same as that used for cultured neuronal voltage-clamp recordings.

[4] = test system: T3, α4β3^S408A,S409Aδ receptors; test: Quantification of spontaneous activity (Ispont) in HEK cells, whole-cell patch clamp; type: cell-based, mouse; conditions: for Ispont during staurosporine application: α4β3S408A,S409Aδ, 200 nM staurosporine, individual cells
T3 construct: expressed in transfected cells; host or cells: HEK 293
Text: as §1, §2, §3

[5] = test system: T4, α4β3^S408D,S409Dδ receptors; test: as above; type: cell-based, mouse; conditions: for Ispont during staurosporine application: α4β3S408D,S409Dδ, 200 nM staurosporine, individual cells
T4 construct: expressed in transfected cells; host or cells: HEK 293
Text: as §1, §2, §3

[6] = eGFP- and β3-expressing neurons, concanamycin A 0.5 μM

Compound: CN(C)CCCn1cc(C2=C(c3c[nH]c4ccccc34)C(=O)NC2=O)c2ccccc21 [bisindolylmaleimide-I]
- Ispont with PKC inhibitor in the patch electrode solution (α4β3δ receptors [1]; α4β3δ, Bis-I 200 nM internal, 2 min dialysis (Fig. 5e)): significantly reduced

Compound: O=C(Nc1c(-c2cccs2)nc2ccccn12)c1ccc(Cl)cc1 [DS2]
- Effect on 0.3 μM GABA responses (α4β3δ receptors [2]; DS2 5 μM): potentiated
- GABA + DS2 current, Supp. Fig. 2b (α4β3δ receptors [2]; GABA with DS2, individual cells): 1.82 and 1.25 and 0.43 and 1.45 and 3.44
- GABA + DS2 current, Supp. Fig. 2b (α4β3 receptors): 0.04 and 0.14 and 0.11 and 0.09 and 0.26

Compound: C/C=C/[C@H]1O[C@@](O)([C@@H](C)[C@H](O)[C@H](C)[C@H]2OC(=O)/C(OC)=C/C(C)=C/[C@@H](C)[C@@H](O)[C@@H](CC)[C@@H](O)[C@H](C)C/C(C)=C/C=C/[C@@H]2OC)C[C@@H](O[C@H]2C[C@@H](O)[C@H](OC(N)=O)[C@@H](C)O2)[C@@H]1C [concanamycin A]
- spontaneous/tonic current, Supp. Fig. 4e ([3]; eGFP neurons): 1.043 and 0.1205 and 0.1429 and 0.1839 and 0.303 and 0.1613 and 0.3626 and 0.3579
- Effect on IPSCs [3, 6]: abolished
- Effect on PTX-sensitive spontaneous currents [3, 6]: without affecting
- spontaneous/tonic current, Supp. Fig. 4e ([3]; β3 neurons): 1.595 and 1.13 and 1.667 and 1.221 and 1.725 and 1.692

Compound: CN([C@@H](Cc1ccc(OS(=O)(=O)c2cccc3cnccc23)cc1)C(=O)N1CCN(c2ccccc2)CC1)S(=O)(=O)c1cccc2cnccc12 [KN-62]
- spontaneous activity, Supp. Fig. 3e (α4β3δ receptors [1]; KN-62 treated (vs control), individual cells): 9.722 and 13.6922 and 18.602 and 3.467 and 9.093 and 9.783 and 14.5969 and 3.449 and 5.659
- Effect on Ispont of internally applied CaMKII inhibitor (α4β3δ receptors [1]; α4β3δ, KN-62 3 µM internal): no effect

Compound: CN[C@@H]1C[C@H]2O[C@@](C)([C@@H]1OC)n1c3ccccc3c3c4c(c5c6ccccc6n2c5c31)C(=O)NC4 [staurosporine]
- Effect on Ispont over 20 min compared to control ([4]; phospho-null α4β3^S408A,S409Aδ, staurosporine 200 nM): no effect
- Ispont during staurosporine application ([4]; time 1 min): 7.3% and 8.9% and 6.5% and 29.4%
- Ispont during staurosporine application ([4]; time 10 min): 5.4% and 6.9% and 9.5% and 5.6% and 26.6%
- Ispont during staurosporine application ([4]; time 20 min): 5.7% and 5.8% and 7.2% and 5%
- Effect on Ispont over 20 min compared to control ([5]; phosphomimetic α4β3^S408D,S409Dδ, staurosporine 200 nM): no effect
- Ispont during staurosporine application ([5]; time 1 min): 12.5% and 12.6%
- Ispont during staurosporine application ([5]; time 10 min): 11.9% and 9.4% and 7.9%
- Ispont during staurosporine application ([5]; time 20 min): 8.8% and 8.7% and 7.1%
- Ispont during staurosporine application (α4β3δ receptors [1]; α4β3δ, time 1 min, individual cells): decreased significantly and 13.2% and 6.4% and 6.3%
- Ispont during staurosporine application (α4β3δ receptors [1]; α4β3δ, time 10 min, individual cells): 9.3% and 12.3% and 3.2% and 4.6%
- Ispont during staurosporine application (α4β3δ receptors [1]; α4β3δ, time 20 min, individual cells): 7.5% and 8% and 2.3% and 3.8%

Compound: PKA inhibitor peptide 14–22: selective PKA inhibitor peptide (GRTGRRNAI; UniProt P61925 15-23, looked up, fragment)
- Ispont with PKA inhibitor in the patch electrode solution (α4β3δ receptors [1]; α4β3δ, PKI 1 μM internal, 2 min dialysis (Fig. 5d)): significantly reduced
